Measured values published in PubChem BioAssay (NCI).
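Interpolation was linear, between the two tested concentrations surrounding the appropriate level; five concentrations were tested over 48 hours in 96-well plates. GI50: concentration for 50% inhibition of growth. TGI: concentration producing complete growth inhibition.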

Legend:
Assay in all cases: NCI anticancer screen, dose series, 48 h
SK-OV-3 ovarian = test system: SK-OV-3 ovarian
CCRF-CEM leukemia = test system: CCRF-CEM leukemia
NCI-H522 lung = test system: NCI-H522 lung
OVCAR-5 ovarian = test system: OVCAR-5 ovarian
SR leukemia = test system: SR leukemia
M14 melanoma = test system: M14 melanoma
786-0 renal = test system: 786-0 renal
UACC-62 melanoma = test system: UACC-62 melanoma
LOX IMVI melanoma = test system: LOX IMVI melanoma
M19-MEL melanoma = test system: M19-MEL melanoma
DMS 114 small cell lung = test system: DMS 114 small cell lung
DLD-1 colon = test system: DLD-1 colon

| SMILES | TGI (SK-OV-3 ovarian) [µM] | TGI (CCRF-CEM leukemia) [µM] | TGI (NCI-H522 lung) [µM] | TGI (OVCAR-5 ovarian) [µM] | TGI (SR leukemia) [µM] | TGI (M14 melanoma) [µM] | TGI (786-0 renal) [µM] | TGI (UACC-62 melanoma) [µM] | TGI (LOX IMVI melanoma) [µM] | TGI (M19-MEL melanoma) [µM] | TGI (DMS 114 small cell lung) [µM] | TGI (DLD-1 colon) [µM] | GI50 (SK-OV-3 ovarian) [µM] | GI50 (CCRF-CEM leukemia) [µM] | GI50 (NCI-H522 lung) [µM] | GI50 (OVCAR-5 ovarian) [µM] | GI50 (SR leukemia) [µM] | GI50 (UACC-62 melanoma) [µM] | GI50 (LOX IMVI melanoma) [µM] | GI50 (M14 melanoma) [µM] |
| --- | --- | --- | --- | --- | --- | --- | --- | --- | --- | --- | --- | --- | --- | --- | --- | --- | --- | --- | --- | --- |
| C=C1C(=O)OC2C1C(OC(=O)/C(C)=C/C)CC1(C)C(=O)CCC(=C)C21 (configuration not stated) | 51.7 | > 80.9 | 7.63 | 32 | > 28 | 23.3 | 20.9 | 23.5 | 13.2 |  |  |  |  |  |  |  |  |  |  |  |
| CC1(C)COC(/C=C/C2=NC(C)(C)CO2)=N1 | > 100 | 28.8 | 13.4 | 54.4 | 27.3 | 31.4 |  | 31.4 | 16.7 |  |  |  |  |  |  |  |  |  |  |  |
| COc1cccc(-c2nc3c(C(=O)NCCN(C)C)cccc3[nH]2)c1 | 69.5 | > 81.6 | 34 | 42.7 |  |  |  | 31.8 | 34.9 | 30.3 | 30.7 | 63.1 |  |  |  |  |  |  |  |  |
| Nc1nc(SCc2ccccc2)c2ncn(Cc3ccccc3)c2n1 | > 100 | > 100 | > 100 | > 100 | > 100 | > 100 | > 100 | > 100 | > 100 |  |  |  |  |  |  |  |  |  |  |  |
| Fc1ccc(-c2ccc(-c3nnc(-c4cc(F)c(Cl)cc4Cl)o3)o2)cc1Cl | > 100 | > 100 | > 100 | > 100 | > 100 |  |  | 51.2 | 48.9 |  |  |  | 41.2 | 35 | 38.7 | > 100 | 68.5 | 17.6 | 20.8 |  |
| S=C(Nc1ccc(Cl)cc1)Nc1ccc(Cl)cc1 (tested in a mixture with another compound) |  | 9.83 | 4.37 | 9.71 | 5.74 | 5.39 |  | 4.28 | 3.57 |  |  |  |  | 1.61 | 1.39 | 2.38 | 2.38 | 1.75 | 1.71 | 2.03 |
| O=C1c2ccccc2-c2ccc(N=[N+]([O-])c3ccc4c(c3)C(=O)c3ccccc3-4)cc21 | > 100 | > 100 | > 100 | > 100 |  | > 100 | > 100 | > 100 | > 100 |  |  |  |  |  |  |  |  |  |  |  |
| O=C1/C(=C\c2ccc(-c3ccc(Cl)cc3Cl)o2)SC2N=C(COc3ccc(Cl)cc3)NN12 (configuration not stated) | > 100 | > 100 | > 100 | > 100 | > 100 | > 100 | > 100 | > 100 | > 100 |  |  |  |  |  |  |  |  |  |  |  |
| O=S(O)c1cc(Cl)cc(Cl)c1O | > 100 | > 100 | > 100 | > 100 |  | > 100 |  | > 100 | > 100 | > 100 | > 100 | > 100 |  |  |  |  |  |  |  |  |
| O=S(=O)(c1ccc(I)cc1)N(c1ccccc1)S(=O)(=O)C(F)(F)C(F)(F)C(F)(F)C(F)(F)F | 74 | > 100 | 84.9 | 95.4 | > 100 | > 100 | > 100 | > 100 | > 100 |  |  |  |  |  |  |  |  |  |  |  |
| COc1ccc(SC(C)(SC)c2ccccn2)c(OC)n1 (configuration not stated) |  |  | > 100 | > 100 | > 100 | > 100 | > 100 | > 100 | > 100 |  |  |  |  |  |  |  |  |  |  |  |
| Oc1cc2cccc[n+]2c2cccc(Cl)c12 |  | 73.7 |  |  |  |  |  |  |  |  |  |  |  | 26.1 | 94.8 |  | 67.5 | 32.6 |  | 66.8 |
| O=C(O)C1CC(c2ccccc2)=NN1c1ccccc1 (configuration not stated) | > 100 | > 100 | > 100 | > 100 |  | > 100 | > 100 | > 100 | > 100 |  |  |  |  |  |  |  |  |  |  |  |
| N#C/C=C1\C=CC(O)C(O)C1OC1OC(CO)C(O)C(O)C1O (configuration not stated) | > 100 | > 100 | > 100 | > 100 |  | > 100 | > 100 | > 100 | > 100 |  |  |  |  |  |  |  |  |  |  |  |
| S=C1N(c2ccc(Cl)cc2)C2=C(N=Nc3ccccc3)C(=Nc3ccccc3S2)N1c1ccccn1 | 31.6 | 22.9 |  | 35.1 | 29.2 | 26.6 | 28.1 |  | 24.4 |  |  |  |  |  |  |  |  |  |  |  |
| CN(C)Cc1ccc(C(=O)Nc2ccc3ncnc(Nc4ccc(Oc5cccc(F)c5)c(Cl)c4)c3c2)cc1 |  | 4.65 |  | 3.11 |  |  |  | 3.23 | 3.15 |  |  |  |  | 1.65 |  | 1.64 |  | 1.77 | 1.69 |  |
| CC(C)C(N=Cc1ccccc1O)C(=O)O (configuration not stated) | > 100 | > 100 | > 100 | > 100 | > 100 | > 100 | > 100 | > 100 | > 100 |  |  |  |  |  |  |  |  |  |  |  |
